For assay [1], the system named is Mus musculus. The assay is described as follows: In vivo activity tested against C3H mice bearing panc-03 murine tumor at a dose of 330 mg/kg, measured as activity rating at 330 mg/kg iv dose. The format is functional.
The subject of assay [2] is Mus musculus. The assay is described as follows: In vivo activity tested against C3H mice bearing panc-03 murine tumor at a dose of 330mg/kg, measured as % treated/control. It is filed as functional.
For assay [3], the system named is Mus musculus. The assay can be described thus: In vivo activity against transplanted Mam-16/C/ Taxol tumors of mice; Not active. The format is functional, organism-based.
Assay [4] concerns Mus musculus. The assay can be described thus: In vivo activity against transplanted Mam-17/Adr tumors of mice; Not active. The format is functional, organism-based.
Assay [5] deals with Mus musculus. The assay can be described thus: In vivo activity against transplanted Mel-B16 tumors of mice; Not active. It is filed as functional, organism-based.
For assay [6], the system named is Mus musculus. The assay is described as follows: In vivo activity against transplanted Mam-16/C tumors of mice. The format is functional, organism-based.
Assay [7] has as its system Mus musculus. The assay is described as follows: In vivo activity against transplanted colon-38 tumors of mice. It is filed as functional, organism-based.
In assay [8] the test system is Mus musculus. The assay can be described thus: In vivo activity against transplanted Panc-02 tumors of mice; Not active. The format is functional, organism-based.
Assay [9] deals with Mus musculus. The assay can be described thus: In vivo activity against transplanted colon-51 tumors of mice; Not active. It is filed as functional, organism-based.
For assay [10], the system named is Mus musculus. The assay is described as follows: In vivo activity against iv transplanted AML Leukemia 1498 tumors of mice; Not active. It is filed as functional, organism-based.
For assay [11], the system named is Mus musculus. The assay can be described thus: In vivo activity against transplanted Squam lung-LC12 tumors of mice. It is filed as functional, organism-based.
Assay [12] has as its system Mus musculus. The assay is described as follows: In vivo activity against transplanted Mam-17 tumors of mice; Not active. It is filed as functional, organism-based.
The test system of assay [13] is Mus musculus. The assay is described as follows: In vivo activity against transplanted Mam-16/C/Adr tumors of mice; Not active. The format is functional, organism-based.
Assay [14] has as its system Mus musculus. The assay is described as follows: In vivo activity against iv transplanted Leukemia L1210 tumors of mice. It is filed as functional, organism-based.
For assay [15], the system named is Mus musculus. The assay can be described thus: In vivo activity against transplanted Panc-03 tumors of mice; Not active. The format is functional, organism-based.
The subject of assay [16] is Mus musculus. The assay can be described thus: In vivo activity against transplanted colon-26 tumors of mice. The format is functional, organism-based.
Assay [17] concerns Mus musculus. The assay can be described thus: In vivo activity tested against C3H mice bearing panc-03 murine tumor measured as log Kill value was based on tumors that grew at 800 mg/kg (po). The format is functional, organism-based. Further details: dose 800 mg/kg.
In assay [18] the test system is Mus musculus. The assay can be described thus: In vivo activity tested against C3H mice bearing panc-03 murine tumor measured as % treated/control calculated at 800 mg/kg (po). The format is functional.
Assay [19] deals with Mus musculus. The assay is described as follows: In vivo activity tested against C3H mice bearing panc-03 murine tumor measured as body weight loss at 800 mg/kg (po). It is filed as functional.
For assay [20], the system named is Mus musculus. The assay is described as follows: In vivo activity tested against C3H mice bearing mammary adenocarcinoma -17/ADR tumor measured as log Kill value was based on tumors that grew at 407.4 mg/kg (po). It is filed as functional, organism-based. Further details: dose 407.4 mg/kg.
The test system of assay [21] is Mus musculus. The assay is described as follows: In vivo activity tested against C3H mice bearing mammary adenocarcinoma -17/ADR tumor measured as % treated/control calculated at 679 mg/kg (po). It is filed as functional.
The test system of assay [22] is Mus musculus. The assay is described as follows: In vivo activity tested against C3H mice bearing mammary adenocarcinoma -16c/ADR tumor measured as % treated/control calculated at 455 mg/kg (po). The format is functional.
The subject of assay [23] is Mus musculus. The assay is described as follows: In vivo activity tested against C3H mice bearing mammary adenocarcinoma -16c/ADR tumor measured as log Kill value was based on tumors that grew at 582 mg/kg (po). The format is functional, organism-based. Further details: dose 582 mg/kg.
The test system of assay [24] is Mus musculus. The assay is described as follows: In vivo activity tested against C3H mice bearing mammary adenocarcinoma -16c/ADR tumor measured as body weight loss at 582 mg/kg (po). The format is functional.
In assay [25] the test system is Mus musculus. The assay is described as follows: In vivo activity tested against C3H mice bearing mammary adenocarcinoma -16c/ADR tumor measured as body weight loss at 455 mg/kg (po). The format is functional.
Assay [26] concerns Mus musculus. The assay can be described thus: In vivo activity tested against C3H mice bearing mammary adenocarcinoma -16c/ADR tumor measured as % treated/control calculated at 582 mg/kg (po). It is filed as functional.
Assay [27] concerns Mus musculus. The assay can be described thus: In vivo activity tested against C3H mice bearing mammary adenocarcinoma -17/ADR tumor measured as body weight loss at 679 mg/kg (po). It is filed as functional.
Assay [28] has as its system Mus musculus. The assay can be described thus: In vivo activity tested against C3H mice bearing mammary adenocarcinoma -17/ADR tumor measured as % treated/control calculated at 407.4 mg/kg (po). It is filed as functional.
Assay [29] has as its system Mus musculus. The assay can be described thus: In vivo activity tested against C3H mice bearing colon adenocarcinoma -38(colon-38) tumor measured as body weight loss at 585 mg/kg (po). It is filed as functional.
For assay [30], the system named is Mus musculus. The assay can be described thus: In vivo activity tested against C3H mice bearing colon adenocarcinoma -38(colon-38) tumor measured as % treated/control calculated at 585 mg/kg (po). It is filed as functional.
Assay [31] has as its system Mus musculus. The assay is described as follows: In vivo activity tested against C3H mice bearing colon adenocarcinoma -38(colon-38) tumor measured as body weight loss at 195 mg/kg (po). The format is functional.
Assay [32] concerns Mus musculus. The assay can be described thus: In vivo activity tested against C3H mice bearing mammary adenocarcinoma -17/ADR tumor measured as log Kill value was based on tumors that grew at 679 mg/kg (po). It is filed as functional, organism-based. Set-up: dose 679 mg/kg.
The test system of assay [33] is Mus musculus. The assay can be described thus: In vivo activity tested against C3H mice bearing mammary adenocarcinoma -17/ADR tumor measured as body weight loss at 407.4 mg/kg (po). The format is functional.
The test system of assay [34] is Mus musculus. The assay is described as follows: In vivo activity tested against C3H mice bearing colon adenocarcinoma -38(colon-38) tumor measured as log Kill value was based on tumors that grew at 195 mg/kg (po). The format is functional, organism-based. Further details: dose 195 mg/kg.
For assay [35], the system named is Mus musculus. The assay is described as follows: In vivo activity tested against C3H mice bearing colon adenocarcinoma -38(colon-38) tumor measured as % treated/control calculated at 195 mg/kg (po). It is filed as functional.
Assay [36] relates to Mus musculus. The assay can be described thus: In vivo activity tested against C3H mice bearing mammary adenocarcinoma -16c/ADR tumor measured as log Kill value was based on tumors that grew at 455 mg/kg (po). Further details: dose 455 mg/kg. The format is functional, organism-based.
For assay [37], the system named is Mus musculus. The assay can be described thus: In vivo activity tested against C3H mice bearing colon adenocarcinoma -38(colon-38) tumor measured as log Kill value was based on tumors that grew at 585 mg/kg (po). Set-up: dose 585 mg/kg. It is filed as functional, organism-based.
Assay [38] has as its system Mus musculus. The assay is described as follows: In vivo activity tested against C3H mice bearing mammary adenocarcinoma -17/ADR tumor measured as body weight loss at 1250 mg/kg (po). The format is functional.
In assay [39] the test system is Mus musculus. The assay can be described thus: In vivo activity tested against C3H mice bearing mammary adenocarcinoma -17/ADR tumor measured as % treated/control calculated at 750 mg/kg (po). It is filed as functional.
Assay [40] relates to Mus musculus. The assay is described as follows: In vivo activity tested against C3H mice bearing mammary adenocarcinoma -17/ADR tumor measured as log Kill value was based on tumors that grew at 1250 mg/kg (po). It is filed as functional, organism-based. Further details: dose 1250 mg/kg.
Assay [41] relates to Mus musculus. The assay can be described thus: In vivo activity tested against C3H mice bearing mammary adenocarcinoma -17/ADR tumor measured as % treated/control calculated at 1250 mg/kg (po). The format is functional.
Assay [42] deals with Mus musculus. The assay is described as follows: In vivo activity tested against C3H mice bearing mammary adenocarcinoma -17/ADR tumor measured as body weight loss at 750 mg/kg (po). The format is functional.
Assay [43] deals with Mus musculus. The assay is described as follows: In vivo activity tested against C3H mice bearing mammary adenocarcinoma -17/ADR tumor measured as log Kill value was based on tumors that grew at 750 mg/kg (po). The format is functional, organism-based. Further details: dose 750 mg/kg.

Activity calls are given as the source filed them. The calls are words filed in the database; no cut-off is given here.

What is called T/C is the result in the treated group divided by that in the control group, in per cent. For `CC(Nc1ccc(Oc2cnc3ccc(Cl)cc3n2)cc1)C(=O)O` (stereo not drawn), the Activity rating with Mus musculus [1] was >2.8. The compound also displayed a T/C in the assay with Mus musculus [2] of 100%.

Take `Nc1ccn([C@@H]2O[C@H](CO)[C@@H](O)C2(F)F)c(=O)n1`: the NA result in the assay with Mus musculus [3], with Mus musculus [4], in the assay with Mus musculus [5], in the assay on Mus musculus [8], in the assay with Mus musculus [9] and in the assay with Mus musculus [10] was “inactive” each time. Besides, the NA result with Mus musculus [12], with Mus musculus [13] and with Mus musculus [15] was “inactive” in each case. The Log kill was > 2.8 in the assay on Mus musculus [6]; 2.8 in the assay on Mus musculus [7]; < 0.7 in the assay on Mus musculus [11]; > 5 in the assay on Mus musculus [14]; 2.8 in the assay on Mus musculus [16].

In turn, `CC(Oc1ccc(Oc2cnc3ccc(Cl)cc3n2)cc1)C(=O)NN` (stereo not drawn) returned a Log kill with Mus musculus [17] of 0.75. Also, in the assay with Mus musculus [18], the T/C was 27%. Besides, the Body weight loss in the assay on Mus musculus [19] is -6.5%.

For the compound `COc1ccc2ncc(Oc3ccc(OC(C)C(=O)O)cc3)nc2c1` (stereo not drawn), the Log kill with Mus musculus [20] is 1.7; in the assay with Mus musculus [23] it was 2.7; with Mus musculus [32] it was 3; in the assay on Mus musculus [34] it was 0.12; in the assay on Mus musculus [36], 2.1; in the assay on Mus musculus [37], 1.73. Besides, the T/C is on record as 4.6% in the assay on Mus musculus [21]; 8% in the assay with Mus musculus [22]; 0% with Mus musculus [26]; 6.4% in the assay with Mus musculus [28]; 23% with Mus musculus [30]; 90% in the assay with Mus musculus [35]. In addition, the Body weight loss with Mus musculus [24] is -13.6%; in the assay with Mus musculus [25], -1.2%; in the assay on Mus musculus [27], -4.6%; in the assay on Mus musculus [29], 0%; with Mus musculus [31], 0%; with Mus musculus [33], 0%.

As for `Cc1ccc2ncc(Oc3ccc(OC(C)C(=O)O)cc3)nc2c1` (stereo not drawn), the Body weight loss in the assay on Mus musculus [38] turned out to be 7.1%; in the assay with Mus musculus [42] it was 4.3%. In addition, the values for the T/C in the assay on Mus musculus [39] and in the assay with Mus musculus [41] were 47% and 21%, respectively. Moreover, the values for the Log kill in the assay on Mus musculus [40] and with Mus musculus [43] were 0.63 and 0.38, respectively.

The values above are taken from ChEMBL document CHEMBL1134487, “Design, synthesis, and biological evaluation of analogues of the antitumor agent, 2-(4-[(7-chloro-2-quinoxalinyl)oxy]phenoxy)propionic acid (XK469)” (2001).
